From ChEMBL document CHEMBL4138198, “Synthesis of new 1-benzyl tetrahydropyridinylidene ammonium salts and their antimicrobial and anticellular activities” (Eur J Med Chem, 2018)
In brackets after ≈: the same amount, converted by molar mass.

Assays:
[1] = system: Plasmodium falciparum; experiment: Antimalarial activity against erythrocytic stage of Plasmodium falciparum NF54 assessed as inhibition of [3H]-hypoxanthine incorporation after 48 hrs by liquid scintillation counting analysis; assay type: functional, organism-based
[2] = system: L6; experiment: Cytotoxicity against rat L6 cells after 70 hrs by Alamar blue staining-based fluorometric analysis; assay type: cell-based; conditions: L6, 70 h
[3] = Selectivity index, ratio of IC50 for rat L6 cells to IC50 for erythrocytic stage of Plasmodium falciparum NF54; assay type: toxicity; conditions: read-out: Ratio IC50
[4] = system: Trypanosoma brucei rhodesiense; experiment: Antitrypanosomal activity against Trypanosoma brucei rhodesiense STIB900 bloodstream forms after 70 hrs by Alamar blue staining-based fluorometric analysis; assay type: functional, organism-based; conditions: STIB900, 70 h
[5] = Selectivity index, ratio of IC50 for rat L6 cells to IC50 for Trypanosoma brucei rhodesiense STIB900 bloodstream forms; assay type: toxicity; conditions: read-out: Ratio IC50
[6] = system: Plasmodium berghei; experiment: Antiplasmodial activity against GFP expressing Plasmodium berghei ANKA infected in NMRI mouse assessed as reduction in parasitemia at 10 mg/kg, ip administered 4 hrs, 24 hrs, 48 hrs, 72 hrs post infection for 4 days and measured 72 hrs post infection by FACS analysis relative to control; assay type: functional; parameters: scale not given: the % may be the effect or the level left
[7] = system: Plasmodium berghei; experiment: Antiplasmodial activity against GFP expressing Plasmodium berghei ANKA infected in NMRI mouse assessed as mouse mean survival days at 10 mg/kg, ip administered 4 hrs, 24 hrs, 48 hrs, 72 hrs post infection for 4 days and measured 72 hrs post infection by FACS analysis (reference value: 4 days); assay type: functional
[8] = Growth inhibition of human MRC5 cells at 140 uM after 72 hrs by XTT assay relative to control; assay type: cell-based; conditions: read-out: GI
[9] = system: Mycolicibacterium smegmatis; experiment: Antimycobacterial activity against Mycobacterium smegmatis ATCC 14468 after 72 hrs by MTT dye-based microbroth dilution assay; assay type: functional; conditions: ATCC 14468, 72 h
[10] = system: Candida tropicalis; experiment: Antimicrobial activity against Candida tropicalis ATCC 13803 assessed as zone of inhibition at 50 ug per disc after 48 hrs by disc diffusion assay; assay type: functional; conditions: ATCC 13803, 48 h, read-out: DIZ
[11] = system: Candida parapsilosis; experiment: Antimicrobial activity against Candida parapsilosis ATCC 90018 assessed as zone of inhibition at 50 ug per disc after 48 hrs by disc diffusion assay; assay type: functional; conditions: Lodderomyces parapsilosis, ATCC 90018, 48 h; read-out: DIZ
[12] = system: Candida albicans; experiment: Antimicrobial activity against Candida albicans ATCC 10231 assessed as zone of inhibition at 50 ug per disc after 48 hrs by disc diffusion assay; assay type: functional; conditions: ATCC 10231, 48 h, read-out: DIZ
[13] = system: Klebsiella oxytoca; experiment: Antimicrobial activity against Klebsiella oxytoca ATCC 8724 assessed as zone of inhibition at 50 ug per disc after 24 hrs by disc diffusion assay; assay type: functional; conditions: ATCC 8724, 24 h, read-out: DIZ
[14] = system: Staphylococcus epidermidis; experiment: Antimicrobial activity against Staphylococcus epidermidis ATCC 12228 assessed as zone of inhibition at 50 ug per disc after 24 hrs by disc diffusion assay; assay type: functional; conditions: ATCC 12228, 24 h, read-out: DIZ
[15] = system: Staphylococcus aureus; experiment: Antimicrobial activity against Staphylococcus aureus subsp. aureus ATCC 25923 assessed as zone of inhibition at 50 ug per disc after 24 hrs by disc diffusion assay; assay type: functional; conditions: ATCC 25923, 24 h, read-out: DIZ
[16] = system: Pseudomonas aeruginosa; experiment: Antimicrobial activity against Pseudomonas aeruginosa ATCC 27853 assessed as zone of inhibition at 50 ug per disc after 24 hrs by disc diffusion assay; assay type: functional; conditions: ATCC 27853, 24 h, read-out: DIZ
[17] = system: Bacillus subtilis; experiment: Antimicrobial activity against Bacillus subtilis subsp. subtilis ATCC 6051 assessed as zone of inhibition at 50 ug per disc after 24 hrs by disc diffusion assay; assay type: functional; conditions: subsp. subtilis ATCC 6051, 24 h, read-out: DIZ
[18] = system: Escherichia coli; experiment: Antimicrobial activity against Escherichia coli ATCC 25922 assessed as zone of inhibition at 50 ug per disc after 24 hrs by disc diffusion assay; assay type: functional; conditions: ATCC 25922, 24 h, read-out: DIZ
[19] = Growth inhibition of human MRC5 cells at 120 uM after 72 hrs by XTT assay relative to control; assay type: cell-based; conditions: read-out: GI
[20] = Growth inhibition of human MRC5 cells at 117 uM after 72 hrs by XTT assay relative to control; assay type: cell-based; conditions: read-out: GI
[21] = Growth inhibition of human MRC5 cells assessed as metabolic active cells level at 123.3 uM after 72 hrs by XTT assay relative to control; assay type: ADME, cell-based; conditions: read-out: Activity
[22] = system: Plasmodium berghei; experiment: Antiplasmodial activity against GFP expressing Plasmodium berghei ANKA infected in NMRI mouse assessed as reduction in parasitemia at 50 mg/kg, ip administered 4 hrs, 24 hrs, 48 hrs, 72 hrs post infection for 4 days and measured 72 hrs post infection by FACS analysis relative to control; assay type: functional; parameters: scale not given: the % may be the effect or the level left
[23] = system: Plasmodium berghei; experiment: Antiplasmodial activity against GFP expressing Plasmodium berghei ANKA infected in NMRI mouse assessed as mouse mean survival days at 50 mg/kg, ip administered 4 hrs, 24 hrs, 48 hrs, 72 hrs post infection for 4 days and measured 72 hrs post infection by FACS analysis (reference value: 4 days); assay type: functional
[24] = system: MRC5; experiment: Cytotoxicity against human MRC5 cells after 72 hrs by XTT assay; assay type: cell-based; conditions: MRC5, 72 h
[25] = Growth inhibition of human MRC5 cells assessed as metabolic active cells level at 147.7 uM after 72 hrs by XTT assay relative to control; assay type: ADME, cell-based; conditions: read-out: Activity
[26] = Growth inhibition of human MRC5 cells at 134 uM after 72 hrs by XTT assay relative to control; assay type: cell-based; conditions: read-out: GI

SMILES | IC50 [1] | IC50 ([2]; read-out: IC50) | selectivity ratio [3] | IC50 [4] | selectivity ratio [5] | further results
CC1(C)CC(=[N+]2CCCC2)C=CN1Cc1ccc2ccccc2n1.[Cl-] | 0.09 µM | 125 µM | 1390 | 16.6 µM | 7.53 | Activity [6]: 0%; MSD [7]: 3 days; inhibition at 72 h, 140 µM [8]: 27 to 56%
CC(C)c1ccc(CN2C=CC(=[N+]3CCCC3)CC2(C)C)cc1 | 0.015 µM | 0.176 µM | 11.7 | 3.24 µM | 0.054 | –
CC1(C)CC(=[N+]2CCCC2)C=CN1Cc1ccc(C(F)(F)F)cc1.[Br-] | 0.036 µM | 125 µM | 3480 | 27.2 µM | 4.6 | Activity [6]: 54.2%; MSD [7]: 7 days; MIC [9]: 64 µg/mL; zone of inhibition at 50 µg/disc [10]: 15 mm; zone of inhibition at 50 µg/disc [11]: 0 mm; zone of inhibition at 50 µg/disc [12]: 15 mm; zone of inhibition at 50 µg/disc [13]: 7 mm; zone of inhibition at 50 µg/disc [14]: 18 mm; zone of inhibition at 50 µg/disc [15]: 8 mm; zone of inhibition at 50 µg/disc [16]: 0 mm; zone of inhibition at 50 µg/disc [17]: 10 mm; zone of inhibition at 50 µg/disc [18]: 0 mm; inhibition at 72 h, 120 µM [19]: 27 to 56%
CC1(C)CC(=[N+]2CCCC2)C=CN1Cc1cccc2ccccc12 | 0.063 µM | 0.61 µM | 9.68 | 0.89 µM | 0.69 | –
CC1(C)CC(=[N+]2CCCC2)C=CN1Cc1ccc(Br)cc1.[Br-] | 0.026 µM | 11.6 µM | 445 | 14.5 µM | 0.8 | Activity [6]: 48.1%; MSD [7]: 4 days; inhibition at 72 h, 117 µM [20]: 27 to 56%
Cc1ccc(CN2C=CC(=[N+]3CCCC3)CC2(C)C)cc1 | 0.1 µM | 94.9 µM | 949 | 4.24 µM | 22.4 | –
COc1cc(CN2C=CC(=[N+]3CCCC3)CC2(C)C)cc(OC)c1OC | 1.1 µM | 192 µM | 174 | 16.2 µM | 11.8 | –
CC1(C)CC(=[N+]2CCCC2)C=CN1Cc1ccccc1Cl | 0.12 µM | 9.73 µM | 81.1 | 10.5 µM | 0.93 | –
CC1(C)CC(=[N+]2CCCC2)C=CN1Cc1ccccn1 | 2.18 µM | > 327 µM | > 150 | 100 µM | > 3.26 | –
CC(C)(C)c1ccc(CN2C=CC(=[N+]3CCCC3)CC2(C)C)cc1 | 0.04 µM | 0.017 µM | 0.43 | 0.67 µM | 0.025 | viability at 72 h, 123.3 µM [21]: 0 to 10%
CC1(C)CC(=[N+]2CCCC2)C=CN1Cc1ccccc1C#N | 1.09 µM | > 267 µM | > 245 | 70.9 µM | > 3.77 | –
CC1(C)CC(=[N+]2CCCC2)C=CN1Cc1ccc(Cl)cc1Cl | 0.043 µM | 2.99 µM | 69.5 | 12.8 µM | 0.23 | –
CC1(C)CC(=[N+]2CCCC2)C=CN1c1ccccc1 | 0.36 µM | – | – | – | – | –
CC1(C)CC(=[N+]2CCCC2)C=CN1Cc1ccccc1 | 0.13 µM | 12.3 µM | 94.8 | 61.6 µM | 0.2 | –
CC1(C)CC(=[N+]2CCCC2)C=CN1Cc1ccc([N+](=O)[O-])cc1.[Cl-] | 0.1 µM | > 286 µM | > 2860 | 79.8 µM | > 3.58 | MIC [9]: ≥ 128 µg/mL; zone of inhibition at 50 µg/disc [10]: 13 mm; zone of inhibition at 50 µg/disc [11]: 0 mm; zone of inhibition at 50 µg/disc [12]: 8 mm; zone of inhibition at 50 µg/disc [13]: 7 mm; zone of inhibition at 50 µg/disc [14]: 7 mm; zone of inhibition at 50 µg/disc [15]: 0 mm; zone of inhibition at 50 µg/disc [16]: 0 mm; zone of inhibition at 50 µg/disc [17]: 0 mm; zone of inhibition at 50 µg/disc [18]: 0 mm; Activity [22]: 78.4%; MSD [23]: 7 days
CC1(C)CC(=[N+]2CCCC2)C=CN1Cc1ccc2c(c1)OCO2 | 0.046 µM | 20.8 µM | 451 | 18.7 µM | 1.11 | –
CC1(C)CC(=[N+]2CCCC2)C=CN1Cc1ccc(F)cc1.[Br-] | 0.11 µM | > 272 µM | > 2480 | 39.2 µM | > 6.94 | Activity [6]: 31.6%; MSD [7]: 4 days
CC1(C)CC(=[N+]2CCCC2)C=CN1Cc1ccccc1C(F)(F)F | 0.18 µM | 6.95 µM | 38.6 | 9.75 µM | 0.71 | –
COc1ccc(CN2C=CC(=[N+]3CCCC3)CC2(C)C)cc1 | 0.11 µM | 168 µM | 1530 | 22.2 µM | 7.56 | –
CC1(C)CC(=[N+]2CCCC2)C=CN1Cc1ccc(Cl)cc1.[Cl-] | 0.027 µM | 20.1 µM | 743 | 19.7 µM | 1.02 | IC50 [24]: 121 µM; Activity [6]: 45.8%; MSD [7]: 9 days; viability at 72 h, 147.7 µM [25]: 0 to 10%; MIC [9]: 32 µg/mL; zone of inhibition at 50 µg/disc [10]: 21 mm; zone of inhibition at 50 µg/disc [11]: 0 mm; zone of inhibition at 50 µg/disc [12]: 20 mm; zone of inhibition at 50 µg/disc [13]: 7 mm; zone of inhibition at 50 µg/disc [14]: 22 mm; zone of inhibition at 50 µg/disc [15]: 14 mm; zone of inhibition at 50 µg/disc [16]: 0 mm; zone of inhibition at 50 µg/disc [17]: 11 mm; zone of inhibition at 50 µg/disc [18]: 0 mm
CC1(C)CC(=[N+]2CCCC2)C=CN1Cc1ccc(Cl)c(Cl)c1.[Cl-] | 0.021 µM | 112 µM | 5350 | 12.4 µM | 9.03 | Activity [6]: 39.9%; MSD [7]: 4 days; inhibition at 72 h, 134 µM [26]: 27 to 56%
CCN(CC)CCCC(C)Nc1ccnc2cc(Cl)ccc12 (centres undefined) [CHLOROQUINE] | – | – | – | – | – | Activity [6]: 99.6%; MSD [7]: 20 days
OC(Cn1cncn1)(Cn1cncn1)c1ccc(F)cc1F [FLUCONAZOLE] | – | – | – | – | – | zone of inhibition at 50 µg/disc [10]: 36 mm; zone of inhibition at 50 µg/disc [11]: 28 mm; zone of inhibition at 50 µg/disc [12]: 24 mm
NNC(=O)c1ccncc1 [ISONIAZID] | – | – | – | – | – | MIC [9]: 4 µg/mL (≈ 29.2 µM)
NC[C@H]1O[C@H](O[C@H]2[C@H](O)[C@@H](O[C@H]3O[C@H](CO)[C@@H](O)[C@H](N)[C@H]3O)[C@H](N)C[C@@H]2N)[C@H](O)[C@@H](O)[C@@H]1O [KANAMYCIN] | – | – | – | – | – | zone of inhibition at 50 µg/disc [15]: 17 mm; zone of inhibition at 50 µg/disc [17]: 13 mm; zone of inhibition at 50 µg/disc [18]: 14 mm
CC1(C)S[C@@H]2[C@H](NC(=O)Cc3ccccc3)C(=O)N2[C@H]1C(=O)O [PENICILLIN G] | – | – | – | – | – | zone of inhibition at 50 µg/disc [13]: 8 mm
COc1cc([C@@H]2c3cc4c(cc3[C@H](O)[C@H]3COC(=O)[C@H]23)OCO4)cc(OC)c1OC [PODOFILOX] | – | – | – | – | – | IC50 [2]: 0.012 µM
CN(C)[C@@H]1C(O)=C(C(N)=O)C(=O)[C@@]2(O)C(O)=C3C(=O)c4c(O)cccc4[C@@](C)(O)[C@H]3C[C@@H]12 [TETRACYCLINE] | – | – | – | – | – | zone of inhibition at 50 µg/disc [14]: 13 mm
